According to ChEMBL document CHEMBL4507275, “Data for DCP probe BI-2545” (2021):

Experiments:
[1] = target: Serine/threonine-protein kinase B-raf (Homo sapiens) (UniProt P15056); conditions: Compound concentration 1000.0 nM
[2] = system: Proto-oncogene tyrosine-protein kinase receptor Ret (Homo sapiens), P07949 [V804L]; conditions: Compound concentration 1000.0 nM
[3] = target: Phosphatidylinositol 5-phosphate 4-kinase type-2 beta (Homo sapiens) (UniProt P78356); conditions: Compound concentration 1000.0 nM
[4] = target: Death-associated protein kinase 1 (Homo sapiens) (UniProt P53355); conditions: Compound concentration 1000.0 nM
[5] = target: Dual serine/threonine and tyrosine protein kinase (Homo sapiens) (UniProt Q6XUX3); conditions: Compound concentration 1000.0 nM
[6] = target: Beta-1 adrenergic receptor (Homo sapiens) (UniProt P08588); conditions: Compound concentration 10.0 uM
Beta-1 adrenergic receptor (Homo sapiens), sequence (P08588 whole entry, looked up): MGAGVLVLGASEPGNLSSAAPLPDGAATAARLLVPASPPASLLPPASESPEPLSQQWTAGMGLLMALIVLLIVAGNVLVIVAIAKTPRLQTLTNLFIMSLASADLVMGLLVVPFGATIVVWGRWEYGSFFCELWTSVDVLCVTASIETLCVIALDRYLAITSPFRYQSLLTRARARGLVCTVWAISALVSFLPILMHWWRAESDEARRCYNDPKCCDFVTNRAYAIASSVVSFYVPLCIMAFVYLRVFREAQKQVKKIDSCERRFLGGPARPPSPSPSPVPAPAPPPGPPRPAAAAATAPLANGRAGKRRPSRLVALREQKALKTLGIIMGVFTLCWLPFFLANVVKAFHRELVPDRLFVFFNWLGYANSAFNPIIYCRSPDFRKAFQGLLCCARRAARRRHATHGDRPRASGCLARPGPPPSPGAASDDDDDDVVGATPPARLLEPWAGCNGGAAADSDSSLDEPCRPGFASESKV

[7] = target: Tyrosine-protein kinase ABL1 (Homo sapiens) (UniProt P00519); conditions: Compound concentration 1000.0 nM
[8] = target: Ephrin type-B receptor 1 (Homo sapiens) (UniProt P54762); conditions: Compound concentration 1000.0 nM
Ephrin type-B receptor 1 (Homo sapiens), sequence (P54762 whole entry): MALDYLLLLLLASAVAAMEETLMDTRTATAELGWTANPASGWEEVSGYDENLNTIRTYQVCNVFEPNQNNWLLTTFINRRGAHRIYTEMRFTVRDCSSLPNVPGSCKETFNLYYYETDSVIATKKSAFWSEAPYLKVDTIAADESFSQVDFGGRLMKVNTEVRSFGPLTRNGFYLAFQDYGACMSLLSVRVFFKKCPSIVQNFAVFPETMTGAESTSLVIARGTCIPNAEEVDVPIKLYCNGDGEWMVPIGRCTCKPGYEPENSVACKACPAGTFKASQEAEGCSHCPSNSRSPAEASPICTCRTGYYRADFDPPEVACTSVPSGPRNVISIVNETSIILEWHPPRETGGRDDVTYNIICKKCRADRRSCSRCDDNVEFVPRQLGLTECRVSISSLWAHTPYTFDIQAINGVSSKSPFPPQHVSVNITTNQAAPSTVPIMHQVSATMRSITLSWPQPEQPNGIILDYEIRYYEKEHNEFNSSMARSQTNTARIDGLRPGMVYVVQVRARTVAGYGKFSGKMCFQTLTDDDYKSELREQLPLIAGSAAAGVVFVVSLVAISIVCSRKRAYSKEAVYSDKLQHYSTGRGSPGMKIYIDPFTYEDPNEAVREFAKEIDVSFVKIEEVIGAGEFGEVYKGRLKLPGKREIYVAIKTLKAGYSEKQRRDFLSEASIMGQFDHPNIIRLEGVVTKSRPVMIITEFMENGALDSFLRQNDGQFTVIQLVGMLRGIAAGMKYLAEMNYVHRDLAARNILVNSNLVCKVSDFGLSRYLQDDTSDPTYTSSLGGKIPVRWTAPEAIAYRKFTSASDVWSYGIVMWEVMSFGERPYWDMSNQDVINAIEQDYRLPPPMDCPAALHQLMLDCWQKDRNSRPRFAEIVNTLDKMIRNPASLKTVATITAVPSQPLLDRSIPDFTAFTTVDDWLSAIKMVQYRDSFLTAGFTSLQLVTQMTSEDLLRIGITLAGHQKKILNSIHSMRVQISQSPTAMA

[9] = target: Tyrosine-protein kinase Fes/Fps (Homo sapiens) (UniProt P07332); conditions: Compound concentration 1000.0 nM
[10] = target: Megakaryocyte-associated tyrosine-protein kinase (Homo sapiens) (UniProt P42679); conditions: Compound concentration 1000.0 nM
[11] = target: Ribosomal protein S6 kinase alpha-5 (Homo sapiens) (UniProt O75582); conditions: Compound concentration 1000.0 nM
[12] = target: Fibroblast growth factor receptor 2 (Homo sapiens) (UniProt P21802); conditions: Compound concentration 1000.0 nM
[13] = target: Serine/threonine-protein kinase ULK1 (Homo sapiens) (UniProt O75385); conditions: Compound concentration 1000.0 nM
[14] = target: Serine/threonine-protein kinase Nek10 (Homo sapiens) (UniProt Q6ZWH5); conditions: Compound concentration 1000.0 nM
[15] = target: Serine/threonine-protein kinase Nek6 (Homo sapiens) (UniProt Q9HC98); conditions: Compound concentration 1000.0 nM
[16] = target: Sodium-dependent noradrenaline transporter (Homo sapiens) (UniProt P23975); conditions: Compound concentration 10.0 uM
[17] = target: Protein kinase C eta type (Homo sapiens) (UniProt P24723); conditions: Compound concentration 1000.0 nM
[18] = target: Phosphatidylinositol 3-kinase C2 domain-containing subunit gamma (Homo sapiens) (UniProt O75747); conditions: Compound concentration 1000.0 nM
[19] = target: Tyrosine-protein kinase TXK (Homo sapiens) (UniProt P42681); conditions: Compound concentration 1000.0 nM
[20] = target: Casein kinase I isoform alpha-like (Homo sapiens) (UniProt Q8N752); conditions: Compound concentration 1000.0 nM
[21] = target: Serine/threonine-protein kinase Chk2 (Homo sapiens) (UniProt O96017); conditions: Compound concentration 1000.0 nM
Serine/threonine-protein kinase Chk2 (Homo sapiens), sequence (O96017 whole entry): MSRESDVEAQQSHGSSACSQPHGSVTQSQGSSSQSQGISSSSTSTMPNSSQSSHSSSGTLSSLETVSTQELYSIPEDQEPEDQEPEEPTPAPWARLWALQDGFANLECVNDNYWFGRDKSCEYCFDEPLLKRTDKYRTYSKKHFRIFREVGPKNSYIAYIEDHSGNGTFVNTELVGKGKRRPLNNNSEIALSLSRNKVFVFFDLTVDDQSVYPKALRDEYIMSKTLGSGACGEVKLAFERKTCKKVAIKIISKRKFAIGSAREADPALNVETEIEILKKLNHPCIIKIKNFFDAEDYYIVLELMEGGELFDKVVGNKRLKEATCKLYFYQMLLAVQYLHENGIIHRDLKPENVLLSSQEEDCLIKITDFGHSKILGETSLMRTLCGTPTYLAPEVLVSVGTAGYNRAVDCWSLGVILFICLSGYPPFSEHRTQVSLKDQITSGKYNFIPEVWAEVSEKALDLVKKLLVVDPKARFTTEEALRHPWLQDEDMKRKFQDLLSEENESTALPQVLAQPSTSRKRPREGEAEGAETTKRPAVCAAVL

[22] = target: Testis-specific serine/threonine-protein kinase 3 (Homo sapiens) (UniProt Q96PN8); conditions: Compound concentration 1000.0 nM
[23] = target: 1-phosphatidylinositol 3-phosphate 5-kinase (Homo sapiens) (UniProt Q9Y2I7); conditions: Compound concentration 1000.0 nM
[24] = target: Serine/threonine-protein kinase 16 (Homo sapiens) (UniProt O75716); conditions: Compound concentration 1000.0 nM
[25] = target: 5-hydroxytryptamine receptor 1B (Homo sapiens) (UniProt P28222); conditions: Compound concentration 10.0 uM
[26] = target: Phosphorylase b kinase gamma catalytic chain, skeletal muscle/heart isoform (Homo sapiens) (UniProt Q16816); conditions: Compound concentration 1000.0 nM
[27] = target: Serine/threonine-protein kinase RIO3 (Homo sapiens) (UniProt O14730); conditions: Compound concentration 1000.0 nM
[28] = target: Tyrosine-protein kinase ZAP-70 (Homo sapiens) (UniProt P43403); conditions: Compound concentration 1000.0 nM
[29] = target: Serine/threonine-protein kinase BRSK1 (Homo sapiens) (UniProt Q8TDC3); conditions: Compound concentration 1000.0 nM
[30] = target: Serine/threonine-protein kinase Nek2 (Homo sapiens) (UniProt P51955); conditions: Compound concentration 1000.0 nM
Serine/threonine-protein kinase Nek2 (Homo sapiens), sequence (P51955 whole entry): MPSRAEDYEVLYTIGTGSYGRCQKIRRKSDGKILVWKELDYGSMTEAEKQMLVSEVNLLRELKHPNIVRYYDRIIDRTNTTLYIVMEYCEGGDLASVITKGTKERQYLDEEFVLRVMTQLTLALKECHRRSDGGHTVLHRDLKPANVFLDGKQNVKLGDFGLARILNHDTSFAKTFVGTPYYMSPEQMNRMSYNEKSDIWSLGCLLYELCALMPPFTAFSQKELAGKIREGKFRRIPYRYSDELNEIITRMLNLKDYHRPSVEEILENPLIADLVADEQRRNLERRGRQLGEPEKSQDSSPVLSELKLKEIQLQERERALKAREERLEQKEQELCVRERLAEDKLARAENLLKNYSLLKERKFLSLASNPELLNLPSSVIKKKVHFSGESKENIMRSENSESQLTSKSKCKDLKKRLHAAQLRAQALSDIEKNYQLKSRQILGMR

[31] = target: Serine/threonine-protein kinase PLK2 (Homo sapiens) (UniProt Q9NYY3); conditions: Compound concentration 1000.0 nM
[32] = target: Ephrin type-B receptor 6 (Homo sapiens) (UniProt O15197); conditions: Compound concentration 1000.0 nM
[33] = system: Phosphatidylinositol 4,5-bisphosphate 3-kinase catalytic subunit alpha isoform (Homo sapiens), P42336 [M1043I]; conditions: Compound concentration 1000.0 nM
Phosphatidylinositol 4,5-bisphosphate 3-kinase catalytic subunit alpha isoform (Homo sapiens), P42336 [M1043I], sequence (P42336 whole entry M1043I, canonical isoform): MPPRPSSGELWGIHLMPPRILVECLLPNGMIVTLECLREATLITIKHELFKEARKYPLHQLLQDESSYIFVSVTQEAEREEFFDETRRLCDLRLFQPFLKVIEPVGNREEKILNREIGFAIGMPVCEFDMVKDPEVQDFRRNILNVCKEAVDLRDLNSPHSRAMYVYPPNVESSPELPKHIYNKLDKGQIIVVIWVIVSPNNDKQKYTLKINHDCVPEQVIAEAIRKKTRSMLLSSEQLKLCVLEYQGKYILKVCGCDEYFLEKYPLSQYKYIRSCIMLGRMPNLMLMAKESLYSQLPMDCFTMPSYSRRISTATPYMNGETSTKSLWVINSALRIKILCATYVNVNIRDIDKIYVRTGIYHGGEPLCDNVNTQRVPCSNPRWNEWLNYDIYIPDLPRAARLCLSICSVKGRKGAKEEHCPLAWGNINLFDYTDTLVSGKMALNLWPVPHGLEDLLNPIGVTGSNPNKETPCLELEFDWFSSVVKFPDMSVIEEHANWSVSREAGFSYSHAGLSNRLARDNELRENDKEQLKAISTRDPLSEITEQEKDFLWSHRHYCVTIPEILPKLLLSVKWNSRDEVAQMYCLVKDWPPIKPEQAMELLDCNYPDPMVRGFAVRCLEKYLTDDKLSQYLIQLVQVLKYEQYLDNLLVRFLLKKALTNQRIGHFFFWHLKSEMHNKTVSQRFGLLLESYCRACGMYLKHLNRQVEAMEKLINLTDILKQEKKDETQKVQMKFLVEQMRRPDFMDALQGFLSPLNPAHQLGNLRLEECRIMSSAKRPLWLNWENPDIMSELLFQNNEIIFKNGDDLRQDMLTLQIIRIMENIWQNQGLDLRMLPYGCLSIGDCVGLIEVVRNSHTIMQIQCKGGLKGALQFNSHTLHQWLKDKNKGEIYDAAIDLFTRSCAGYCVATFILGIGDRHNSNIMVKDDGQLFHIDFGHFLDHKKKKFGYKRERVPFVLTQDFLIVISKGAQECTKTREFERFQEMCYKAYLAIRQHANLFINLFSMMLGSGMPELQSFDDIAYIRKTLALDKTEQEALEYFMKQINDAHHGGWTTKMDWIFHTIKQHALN

[34] = target: Serine/threonine-protein kinase 32A (Homo sapiens) (UniProt Q8WU08); conditions: Compound concentration 1000.0 nM
[35] = system: Tyrosine-protein kinase ABL1 (Homo sapiens), P00519 [H396P]; conditions: Compound concentration 1000.0 nM
[36] = target: Tyrosine-protein kinase receptor UFO (Homo sapiens) (UniProt P30530); conditions: Compound concentration 1000.0 nM
[37] = target: Cyclin-dependent kinase-like 2 (Homo sapiens) (UniProt Q92772); conditions: Compound concentration 1000.0 nM
[38] = target: Mitogen-activated protein kinase kinase kinase 5 (Homo sapiens) (UniProt Q99683); conditions: Compound concentration 1000.0 nM
[39] = target: Ribosomal protein S6 kinase alpha-3 (Homo sapiens) (UniProt P51812); conditions: Compound concentration 1000.0 nM
[40] = target: Serine/threonine-protein kinase 32C (Homo sapiens) (UniProt Q86UX6); conditions: Compound concentration 1000.0 nM
[41] = target: Receptor-interacting serine/threonine-protein kinase 1 (Homo sapiens) (UniProt Q13546); conditions: Compound concentration 1000.0 nM
Receptor-interacting serine/threonine-protein kinase 1 (Homo sapiens), sequence (Q13546 whole entry): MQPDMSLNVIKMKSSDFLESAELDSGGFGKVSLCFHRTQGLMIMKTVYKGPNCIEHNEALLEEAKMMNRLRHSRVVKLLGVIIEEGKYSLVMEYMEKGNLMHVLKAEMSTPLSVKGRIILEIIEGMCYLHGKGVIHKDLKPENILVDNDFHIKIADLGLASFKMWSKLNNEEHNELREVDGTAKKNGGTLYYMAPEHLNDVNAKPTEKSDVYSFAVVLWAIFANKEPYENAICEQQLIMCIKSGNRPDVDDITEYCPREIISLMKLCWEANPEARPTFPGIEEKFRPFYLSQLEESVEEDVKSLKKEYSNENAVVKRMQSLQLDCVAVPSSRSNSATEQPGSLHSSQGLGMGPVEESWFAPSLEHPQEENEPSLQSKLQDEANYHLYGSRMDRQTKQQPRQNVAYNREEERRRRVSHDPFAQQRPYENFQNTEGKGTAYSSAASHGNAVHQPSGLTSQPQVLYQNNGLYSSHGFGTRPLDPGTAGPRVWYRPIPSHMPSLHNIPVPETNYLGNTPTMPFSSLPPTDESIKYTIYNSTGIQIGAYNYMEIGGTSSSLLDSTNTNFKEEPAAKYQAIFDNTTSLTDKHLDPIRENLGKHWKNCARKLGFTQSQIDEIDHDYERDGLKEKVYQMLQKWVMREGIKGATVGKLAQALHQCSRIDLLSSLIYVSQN

[42] = target: Mitogen-activated protein kinase kinase kinase kinase 5 (Homo sapiens) (UniProt Q9Y4K4); conditions: Compound concentration 1000.0 nM
Mitogen-activated protein kinase kinase kinase kinase 5 (Homo sapiens), sequence (Q9Y4K4 whole entry, looked up): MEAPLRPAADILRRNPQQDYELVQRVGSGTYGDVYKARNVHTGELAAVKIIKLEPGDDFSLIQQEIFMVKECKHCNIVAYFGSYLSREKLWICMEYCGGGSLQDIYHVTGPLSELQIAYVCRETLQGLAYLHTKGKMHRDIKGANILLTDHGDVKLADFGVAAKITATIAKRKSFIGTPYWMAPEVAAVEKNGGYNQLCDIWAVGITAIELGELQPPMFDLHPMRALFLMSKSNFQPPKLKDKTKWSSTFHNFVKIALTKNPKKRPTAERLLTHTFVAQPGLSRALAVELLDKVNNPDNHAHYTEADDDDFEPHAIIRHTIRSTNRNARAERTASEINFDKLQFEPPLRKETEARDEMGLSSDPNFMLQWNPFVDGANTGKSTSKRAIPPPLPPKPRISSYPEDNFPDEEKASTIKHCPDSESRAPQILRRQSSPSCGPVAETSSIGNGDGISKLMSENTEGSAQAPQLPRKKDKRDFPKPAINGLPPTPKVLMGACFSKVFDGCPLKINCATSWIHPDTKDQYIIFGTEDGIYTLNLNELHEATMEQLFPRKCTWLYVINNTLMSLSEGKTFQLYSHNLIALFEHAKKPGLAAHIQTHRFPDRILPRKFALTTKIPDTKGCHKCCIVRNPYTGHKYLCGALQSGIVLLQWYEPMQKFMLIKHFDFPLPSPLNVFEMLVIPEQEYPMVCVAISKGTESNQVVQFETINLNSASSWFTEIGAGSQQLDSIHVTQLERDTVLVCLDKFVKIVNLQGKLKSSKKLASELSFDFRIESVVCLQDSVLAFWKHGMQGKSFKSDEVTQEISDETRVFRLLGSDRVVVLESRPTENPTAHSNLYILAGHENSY

[43] = target: Calcium/calmodulin-dependent protein kinase kinase 2 (Homo sapiens) (UniProt Q96RR4); conditions: Compound concentration 1000.0 nM
[44] = target: 5-hydroxytryptamine receptor 2C (Homo sapiens) (UniProt P28335); conditions: Compound concentration 10.0 uM
[45] = target: NUAK family SNF1-like kinase 1 (Homo sapiens) (UniProt O60285); conditions: Compound concentration 1000.0 nM

O=C(NC[C@@H]1[C@H]2CN(C(=O)OCc3cc(C(F)(F)F)cc(C(F)(F)F)c3)C[C@@H]12)c1ccc2[nH]nnc2c1 [BI 2545]
inactive: residual activity [1] 98% | residual activity [2] 100% | residual activity [3] 100% | residual activity [4] 93% | residual activity [5] 82% | inhibition [6] 13.3% | residual activity [7] 87% | residual activity [8] 100% | residual activity [9] 95% | residual activity [10] 100% | residual activity [11] 100% | residual activity [12] 100% | residual activity [13] 92% | residual activity [14] 73% | residual activity [15] 100% | inhibition [16] 15.5% | residual activity [17] 100% | residual activity [18] 100% | residual activity [19] 84% | residual activity [20] 86% | residual activity [21] 86% | residual activity [22] 100% | residual activity [23] 100% | residual activity [24] 100% | inhibition [25] 17.9% | residual activity [26] 92% | residual activity [27] 94% | residual activity [28] 60% | residual activity [29] 89% | residual activity [30] 100% | residual activity [31] 89% | residual activity [32] 100% | residual activity [33] 95% | residual activity [34] 72% | residual activity [35] 84% | residual activity [36] 87% | residual activity [37] 95% | residual activity [39] 94% | residual activity [40] 90% | residual activity [41] 89% | residual activity [42] 97% | residual activity [43] 91% | inhibition [44] 41.5% | residual activity [45] 87%
active: residual activity [38] 13%

Cc1nccc(COC(=O)N2C[C@@H]3[C@@H](CNC(=O)c4ccc5[nH]nnc5c4)[C@@H]3C2)n1 [BI 3017]
inactive: residual activity [1] 84% | residual activity [2] 100% | residual activity [3] 100% | residual activity [4] 95% | residual activity [5] 69% | inhibition [6] 12.4% | residual activity [7] 91% | residual activity [8] 95% | residual activity [9] 99% | residual activity [10] 94% | residual activity [11] 74% | residual activity [12] 78% | residual activity [13] 93% | residual activity [14] 92% | residual activity [15] 100% | inhibition [16] -7.15% | residual activity [17] 98% | residual activity [18] 99% | residual activity [19] 94% | residual activity [20] 100% | residual activity [21] 100% | residual activity [22] 100% | residual activity [23] 100% | residual activity [24] 80% | inhibition [25] 4.4% | residual activity [26] 100% | residual activity [27] 100% | residual activity [28] 97% | residual activity [29] 100% | residual activity [30] 100% | residual activity [31] 82% | residual activity [32] 99% | residual activity [33] 100% | residual activity [34] 94% | residual activity [35] 93% | residual activity [36] 88% | residual activity [37] 95% | residual activity [38] 95% | residual activity [39] 100% | residual activity [40] 95% | residual activity [41] 86% | residual activity [42] 100% | residual activity [43] 100% | inhibition [44] 31.1% | residual activity [45] 82%
